# Source: US7528225B2, “Peptide epitopes of apolipoprotein B” (Forskarpapatent I Syd, priority 2001, dated 2009)
# Entries after “also recorded” stand apart in the source; their conditions may differ.
# Assays:
# [1] = tested on: Apo E (−/−) mice; test: Antibody titer against immunized peptide after immunization (mouse serum ELISA); type: in vivo; conditions: mouse serum 1/50; immunized group; mean ± Std
# Description: Antibody titer measurement. To measure the antibody response after peptide immunization, an ELISA was developed. Antibody titer against immunized peptide was measured using blood collected at 2 weeks after booster and at sacrifice. Antibody response against 3 peptides was also determined in Alum group at the same time-points. In brief, native synthetic peptides diluted in PBS pH 7.4 (20 μg/ml) were absorbed to microtiter plate wells (Nunc MaxiSorp, Nunc, Roskilde, Denmark) in an overnight incubation at 4° C. […] After rinsing, deposition of antibodies directed to the peptides was detected by using biotinylated rabbit anti-mouse Ig antibodies (Dako A/S, Glostrup, Denmark) appropriately diluted in TBS-T. After another incubation for 2 h at room temperature the plates were washed and the bound biotinylated antibodies were detected by alkaline phosphatase conjugated streptavidin (Sigma), incubated for 2 h at room temperature. Using phosphatase substrate kit (Pierce) developed the colour reaction and the absorbance at 405 nm was measured after 1 h of incubation at room temperature. Mean values were calculated after the background was subtracted.
# [2] = tested on: atherosclerosis in apo E knockout mice; test: Peptide immunization of Apo E (−/−) mice on high cholesterol diet: atherosclerotic plaque size and composition; conditions: for Atherosclerotic plaque in the descending aorta, en face oil red O, in comparison to control (in words): Apo E (−/−) mice vs Alum control; for mean collagen content in the aortic sinus plaques: Trichrome staining; for mean collagen content in the aortic sinus plaques / Total plaque size in aortic sinus / % of plaque in aorta (flat prep.) / Oil red O (+) area (% of aortic sinus plaque) / Aortic arch plaque size: mean ± Std; for Effect on atherosclerosis in the aorta: immunization of apo E knockout mice with single peptide sequence or mixture (Table B); for Total plaque size in aortic sinus: Apo E (−/−) mice, sacrifice at 25 weeks; for % of plaque in aorta (flat prep.): descending thoracic and abdominal aorta, en face, oil red O; for Oil red O (+) area (% of aortic sinus plaque): lipid content of aortic sinus plaque
# Description: Apo E (−/−) mice received subcutaneous primary immunization at 6-7 weeks of age, followed by an intra-peritoneal booster 3 weeks later. Mice were fed high cholesterol diet from the onset of immunization and continued until sacrifice at the age of 25 weeks.
# Alum was used as immunoadjuvant and mixed with peptide conjugate with 1:1 dilution in volume. The amount of peptide in each immunization was 33 μg/100 μl per injection.
# Apo E (−/−) mice from the Jackson Laboratories (Bar Harbor, Me.) received subcutaneous primary immunization at 6-7 weeks of age, followed by an intra-peritoneal booster 3 weeks later. Mice were fed high cholesterol diet from the onset of immunization and continued until sacrifice at the age of 25 weeks. Blood samples were collected 2 weeks after booster and at the time of sacrifice. Mice receiving Alum served as control. […] At the time of sacrifice, mice were anesthetized by inhalation Enflurane. Plasma was obtained by retro-orbital bleeding prior to sacrifice.
# To evaluate the effect of peptide immunization on atherosclerosis formation, the plaque size at aortic sinus was assessed, aortic arch and descending thoracic and abdominal aorta. After the heart and aortic tree were perfused with normal saline at physiological pressure, the heart and proximal aorta were excised and embedded in OCT compound (Tissue-Tek) and frozen sectioned. Serial 6-μm-thick sections were collected from the appearance of at least 2 aortic valves to the disappearance of the aortic valve leaflets for aortic sinus plaque evaluation. Typically 3 consecutive sections were on one slide and a total of 25-30 slides were collected from one mouse and every fifth slide was grouped for staining. Ascending aorta and aortic arches upto left subclavian artery were also sectioned and processed similarly. Descending thoracic and abdominal aorta were processed separately for en face evaluation of plaque formation after oil red O staining.
# Chicken egg albumin (Sigma) in a concentration of 0.8 g/ml water was mixed 1:1 with glycerol. Sodium azide was added to make a final concentration of sodium azide 0.2%. After descending thoracic and abdominal aorta was cleaned off surrounding tissue and fat, the segment of aorta from left subclavian artery to the level of renal artery was then carefully removed for overnight fixation in Histochoice (Amresco). Aorta was then carefully opened longitudinally and placed with luminal side up on a slide freshly coated with egg albumin solution. After albumin solution became dry, the aorta was stained with Oil red O to assess the extent of atherosclerosis with computer-assisted histomorphometry.
sequence,measurement,setting,value
ATRFKHLRKYTYNYQAQSSS [Peptide 2],Increase of antibody titer against immunized peptide after immunization,[1],2.4±1.0 fold
same,"Atherosclerotic plaque in the descending aorta, en face oil red O, in comparison to control (in words)",[2]; listed as peptide No. 2,substantially reduced atherosclerosis; also recorded: significantly reduced atherosclerotic burden
same,mean collagen content in the aortic sinus plaques,[2],40.0±7.7%
same,Effect on atherosclerosis in the aorta,[2],−67.7%
same,macrophage infiltration in the aortic sinus plaques (MOMA-2),[2]; immunohistochemistry,significantly reduced macrophage infiltration
HTFLIYITELLKKLQSTTVM [Peptide 301],"Atherosclerotic plaque in the descending aorta, en face oil red O, in comparison to control (in words)",[2],substantially reduced atherosclerosis
same,Total plaque size in aortic sinus,[2],0.46 ± 0.16 mm^2
same,% of plaque in aorta (flat prep.),[2],8.9 ± 2.2 %
same,Effect on atherosclerosis in the aorta,[2],−55.2%
same,Oil red O (+) area (% of aortic sinus plaque),[2],23.8 ± 4.1%
same,Aortic arch plaque size,[2],0.050 ± 0.024 mm^2
KTTKQSFDLSVKAQYKKNKH [Peptide 210],Effect on atherosclerosis in the aorta,[2],−57.9%
EEEMLENVSLVCPKDATRFK [Peptide 1],Increase of antibody titer against immunized peptide after immunization,[1],6.1±3.1 fold
same,"Atherosclerotic plaque in the descending aorta, en face oil red O, in comparison to control (in words)",[2]; listed as Peptide No 1,did not produce a significant reduction in atherosclerosis
same,Total plaque size in aortic sinus,[2],0.48 ± 0.14 mm^2
same,mean collagen content in the aortic sinus plaques,[2],35.6±8.5%
same,% of plaque in aorta (flat prep.),[2],17 ± 4.3%
same,Effect on atherosclerosis in the aorta,[2],−15.4%
same,Oil red O (+) area (% of aortic sinus plaque),[2],32.0 ± 8.1%
same,Aortic arch plaque size,[2],0.054 ± 0.027 mm^2
same,Effect of immunisation on the development of atherosclerosis (in words),[2]; summary statement,lacks total effect
IEIGLEGKGFEPTLEALFGK [Peptide 45],Effect on atherosclerosis in the aorta,[2],−47.4%
FPDLGQEVALNANTKNQKIR [Peptide 240],Effect on atherosclerosis in the aorta,[2],0%
VISIPRLQAEARSEILAHWS [Peptide 74],Effect on atherosclerosis in the aorta,[2],−31.0%
